Experimental data as given in US20240108702A1, “Use Of Naturally Occurring Cyclic Peptides For Treatment Of SARS-COV-2 Infection” (The University of Southern California, priority 2021, published 2024).
Like-named read-outs stand apart in the source and are kept apart here. Where a SMILES comes first, the peptide text is derived from it. Bridges are numbered along the chain shown (N, C = ends).

Conditions: for LOAEL: i.v.
[1] = female rats, 5 mg/kg/day, Day 8, median
[2] = female rats, 10 mg/kg/day, Day 8, median
[3] = female rats, 20 mg/kg, Day 2, median
[4] = male rats, 5 mg/kg/day, Day 8, median
[5] = male rats, 10 mg/kg/day, Day 8, median
[6] = male rats, 20 mg/kg, Day 2, median

CC[C@H](C)[C@@H]1NC(=O)[C@@H]2CSSC[C@H](NC(=O)[C@H](CCCNC(=N)N)NC(=O)[C@@H]3CSSC[C@H](NC1=O)C(=O)N[C@@H]([C@@H](C)O)C(=O)N[C@@H](CCCNC(=N)N)C(=O)NCC(=O)N[C@@H](Cc1ccccc1)C(=O)N3)C(=O)N[C@@H](CC(C)C)C(=O)N[C@H]1CSSC[C@H](NC(=O)[C@H](C(C)C)NC(=O)CNC(=O)[C@H](CCCNC(=N)N)NC(=O)[C@H](CCCNC(=N)N)NC1=O)C(=O)N[C@@H](CCCNC(=N)N)C(=O)N2 [Peptide 1] (cyclo(GFCRCLCRRGVCRCICTR); disulfide 3-16, 5-14, 7-12)
LOAEL (Sprague-Dawley rats, study duration 7 days (Table 8)): 20 mg/kg/day
mortality (determined unrelated to treatment) (female rats, 5 mg/kg dose group, found dead Day 15): 1 out of 16
A/G [1]: 2.10
ALP [1]: 92.0 U/L
ALT [1]: 35.0 U/L
APTT [1]: 10.6 s
AST [1]: 139.0 U/L
Albumin [1]: 3.9 g/dL
Basophils [1]: 0.3%
Basophils absolute [1]: 0.02 10^3/mm^3
CK [1]: 792 U/L
Calcium [1]: 9.80 mg/dL
Chloride [1]: 105.0 mmol/L
Cholesterol [1]: 55.0 mg/dL
Creatinine [1]: 0.3 mg/dL
Eosinophils [1]: 3.6%
Eosinophils absolute [1]: 0.30 10^3/mm^3
Fibrinogen [1]: 223 mg/dL
GGT [1]: 0.0 U/L
Globulin [1]: 1.8 g/dL
Glucose [1]: 97 mg/dL
HDW [1]: 2.37 g/dL
Hct [1]: 40.5%
Hemoglobin [1]: 13.5 g/dL
K [1]: 4.9 mmol/L
LUC [1]: 0.3%
LUC absolute [1]: 0.02 10^3/mm^3
Lymphocyte absolute [1]: 4.78 10^3/mm^3
Lymphocytes [1]: 68.1%
MCH [1]: 19.1 pg
MCHC [1]: 33.4 g/dL
MCV [1]: 57.9 fL
Monocyte absolute [1]: 0.17 10^3/mm^3
Monocytes [1]: 2.6%
Na [1]: 143 mmol/L
Neutrophil absolute [1]: 1.33 10^3/mm^3
Neutrophils [1]: 26.7%
PT [1]: 16.3 s
Phos [1]: 7.3 mg/dL
Platelets [1]: 801 10^3/mm^3
RBC [1]: 6.88 10^6/mm^3
RDW [1]: 12.7%
Reticulocytes [1]: 3.9%
Reticulocytes absolute [1]: 256.7 10^3/mm^3
T-Bil [1]: 0.00 mg/dL
TP [1]: 5.8 g/dL
Triglycerides [1]: 25 mg/dL
Urea N [1]: 20 mg/dL
WBC [1]: 6.50 10^3/mm^3
A/G [2]: 2.15
ALP [2]: 109.5 U/L
ALT [2]: 32.5 U/L
APTT [2]: 10.9 s
AST [2]: 122.0 U/L
Albumin [2]: 3.9 g/dL
Basophils [2]: 0.4%
Basophils absolute [2]: 0.04 10^3/mm^3
CK [2]: 474 U/L
Calcium [2]: 9.95 mg/dL
Chloride [2]: 105.0 mmol/L
Cholesterol [2]: 55.0 mg/dL
Creatinine [2]: 0.3 mg/dL
Eosinophils [2]: 3.3%
Eosinophils absolute [2]: 0.33 10^3/mm^3
Fibrinogen [2]: 283 mg/dL
GGT [2]: 0.0 U/L
Globulin [2]: 1.8 g/dL
Glucose [2]: 99 mg/dL
HDW [2]: 2.45 g/dL
Hct [2]: 41.2%
Hemoglobin [2]: 13.7 g/dL
K [2]: 5.05 mmol/L
LUC [2]: 0.35%
LUC absolute [2]: 0.04 10^3/mm^3
Lymphocyte absolute [2]: 7.13 10^3/mm^3
Lymphocytes [2]: 72.0%
MCH [2]: 19.0 pg
MCHC [2]: 33.3 g/dL
MCV [2]: 57.3 fL
Monocyte absolute [2]: 0.39 10^3/mm^3
Monocytes [2]: 3.5%
Na [2]: 142.5 mmol/L
Neutrophil absolute [2]: 2.18 10^3/mm^3
Neutrophils [2]: 19.9%
PT [2]: 17.1 s
Phos [2]: 7.05 mg/dL
Platelets [2]: 939 10^3/mm^3
RBC [2]: 7.21 10^6/mm^3
RDW [2]: 13.0%
Reticulocytes [2]: 4.1%
Reticulocytes absolute [2]: 277.3 10^3/mm^3
T-Bil [2]: 0.00 mg/dL
TP [2]: 5.7 g/dL
Triglycerides [2]: 26 mg/dL
Urea N [2]: 21 mg/dL
WBC [2]: 10.75 10^3/mm^3
A/G [3]: 3.00
ALP [3]: 142.0 U/L
ALT [3]: 62.0 U/L
APTT [3]: 29.2 s
AST [3]: 397.0 U/L
Albumin [3]: 3.0 g/dL
Basophils [3]: 0.5%
Basophils absolute [3]: 0.06 10^3/mm^3
CK [3]: 1,506 U/L
Calcium [3]: 10.30 mg/dL
Chloride [3]: 104.0 mmol/L
Cholesterol [3]: 52.0 mg/dL
Creatinine [3]: 0.5 mg/dL
Eosinophils [3]: 1.5%
Eosinophils absolute [3]: 0.13 10^3/mm^3
Fibrinogen [3]: 83 mg/dL
GGT [3]: 4.0 U/L
Globulin [3]: 1.0 g/dL
Glucose [3]: 218 mg/dL
HDW [3]: 2.37 g/dL
Hct [3]: 46.9%
Hemoglobin [3]: 15.2 g/dL
K [3]: 4.9 mmol/L
LUC [3]: 0.5%
LUC absolute [3]: 0.05 10^3/mm^3
Lymphocyte absolute [3]: 5.56 10^3/mm^3
Lymphocytes [3]: 60.5%
MCH [3]: 19.6 pg
MCHC [3]: 32.3 g/dL
MCV [3]: 61.0 fL
Monocyte absolute [3]: 0.33 10^3/mm^3
Monocytes [3]: 3.8%
Na [3]: 141 mmol/L
Neutrophil absolute [3]: 2.55 10^3/mm^3
Neutrophils [3]: 33.6%
PT [3]: 23.5 s
Phos [3]: 9.3 mg/dL
Platelets [3]: 604 10^3/mm^3
RBC [3]: 7.63 10^6/mm^3
RDW [3]: 12.2%
Reticulocytes [3]: 5.3%
Reticulocytes absolute [3]: 326.0 10^3/mm^3
T-Bil [3]: 0.00 mg/dL
TP [3]: 3.90 g/dL
Triglycerides [3]: 106 mg/dL
Urea N [3]: 20 mg/dL
WBC [3]: 8.15 10^3/mm^3
microscopic findings, liver (female rats, 5 and 10 mg/kg/day, end of treatment, non-adverse, recoverable): minimal to mild liver necrosis
microscopic findings, adrenal (male and female rats, 20 mg/kg): Mild to severe adrenal necrosis
body weight (male and female rats, 20 mg/kg dosing group): significant decreases in body weights
A/G [4]: 2.2
ALP [4]: 212.0 U/L
ALT [4]: 40.0 U/L
APTT [4]: 14.8 s
AST [4]: 133.0 U/L
Albumin [4]: 3.8 g/dL
Basophils [4]: 0.3%
Basophils absolute [4]: 0.03 10^3/mm^3
CK [4]: 766 U/L
Calcium [4]: 9.75 mg/dL
Chloride [4]: 104.5 mmol/L
Cholesterol [4]: 70.5 mg/dL
Creatinine [4]: 0.2 mg/dL
Eosinophils [4]: 3.9%
Eosinophils absolute [4]: 0.37 10^3/mm^3
Fibrinogen [4]: 263 mg/dL
GGT [4]: 0.0 U/L
Globulin [4]: 1.7 g/dL
Glucose [4]: 73 mg/dL
HDW [4]: 2.30 g/dL
Hct [4]: 43.8%
Hemoglobin [4]: 14.1 g/dL
K [4]: 5.15 mmol/L
LUC [4]: 0.3%
LUC absolute [4]: 0.03 10^3/mm^3
Lymphocyte absolute [4]: 6.03 10^3/mm^3
Lymphocytes [4]: 71.8%
MCH [4]: 20.0 pg
MCHC [4]: 32.1 g/dL
MCV [4]: 61.8 fL
Monocyte absolute [4]: 0.22 10^3/mm^3
Monocytes [4]: 2.9%
Na [4]: 144 mmol/L
Neutrophil absolute [4]: 2.04 10^3/mm^3
Neutrophils [4]: 20.2%
PT [4]: 16.0 s
Phos [4]: 8.45 mg/dL
Platelets [4]: 1,052 10^3/mm^3
RBC [4]: 7.06 10^6/mm^3
RDW [4]: 14.0%
Reticulocytes [4]: 5.2%
Reticulocytes absolute [4]: 359.7 10^3/mm^3
T-Bil [4]: 0.00 mg/dL
TP [4]: 5.5 g/dL
Triglycerides [4]: 37 mg/dL
Urea N [4]: 16.5 mg/dL
WBC [4]: 8.40 10^3/mm^3
A/G [5]: 2.35
ALP [5]: 212.5 U/L
ALT [5]: 32.5 U/L
APTT [5]: 14.6 s
AST [5]: 113.5 U/L
Albumin [5]: 3.7 g/dL
Basophils [5]: 0.3%
Basophils absolute [5]: 0.03 10^3/mm^3
CK [5]: 613 U/L
Calcium [5]: 9.70 mg/dL
Chloride [5]: 105.0 mmol/L
Cholesterol [5]: 66.0 mg/dL
Creatinine [5]: 0.3 mg/dL
Eosinophils [5]: 3.0%
Eosinophils absolute [5]: 0.31 10^3/mm^3
Fibrinogen [5]: 261 mg/dL
GGT [5]: 0.0 U/L
Globulin [5]: 1.6 g/dL
Glucose [5]: 83 mg/dL
HDW [5]: 2.20 g/dL
Hct [5]: 43.7%
Hemoglobin [5]: 14.2 g/dL
K [5]: 5.1 mmol/L
LUC [5]: 0.3%
LUC absolute [5]: 0.03 10^3/mm^3
Lymphocyte absolute [5]: 6.69 10^3/mm^3
Lymphocytes [5]: 70.9%
MCH [5]: 20.2 pg
MCHC [5]: 32.4 g/dL
MCV [5]: 62.6 fL
Monocyte absolute [5]: 0.28 10^3/mm^3
Monocytes [5]: 2.7%
Na [5]: 144 mmol/L
Neutrophil absolute [5]: 1.85 10^3/mm^3
Neutrophils [5]: 22.6%
PT [5]: 17.5 s
Phos [5]: 8.6 mg/dL
Platelets [5]: 1,086 10^3/mm^3
RBC [5]: 7.06 10^6/mm^3
RDW [5]: 13.1%
Reticulocytes [5]: 4.6%
Reticulocytes absolute [5]: 314.2 10^3/mm^3
T-Bil [5]: 0.00 mg/dL
TP [5]: 5.35 g/dL
Triglycerides [5]: 29 mg/dL
Urea N [5]: 19.0 mg/dL
WBC [5]: 10.05 10^3/mm^3
A/G [6]: 2.70
ALP [6]: 232.0 U/L
ALT [6]: 74.0 U/L
APTT [6]: 18.5 s
AST [6]: 245.0 U/L
Albumin [6]: 2.7 g/dL
Basophils [6]: 0.2%
Basophils absolute [6]: 0.03 10^3/mm^3
CK [6]: 707 U/L
Calcium [6]: 9.40 mg/dL
Chloride [6]: 101.0 mmol/L
Cholesterol [6]: 67.0 mg/dL
Creatinine [6]: 0.4 mg/dL
Eosinophils [6]: 1.1%
Eosinophils absolute [6]: 0.15 10^3/mm^3
Fibrinogen [6]: 98 mg/dL
GGT [6]: 0.0 U/L
Globulin [6]: 1.0 g/dL
Glucose [6]: 175 mg/dL
HDW [6]: 2.44 g/dL
Hct [6]: 37.3%
Hemoglobin [6]: 12.1 g/dL
K [6]: 5.1 mmol/L
LUC [6]: 0.5%
LUC absolute [6]: 0.07 10^3/mm^3
Lymphocyte absolute [6]: 4.24 10^3/mm^3
Lymphocytes [6]: 30.9%
MCH [6]: 20.0 pg
MCHC [6]: 31.8 g/dL
MCV [6]: 62.5 fL
Monocyte absolute [6]: 0.93 10^3/mm^3
Monocytes [6]: 8.1%
Na [6]: 140 mmol/L
Neutrophil absolute [6]: 8.40 10^3/mm^3
Neutrophils [6]: 61.1%
PT [6]: 21.3 s
Phos [6]: 9.3 mg/dL
Platelets [6]: 728 10^3/mm^3
RBC [6]: 6.04 10^6/mm^3
RDW [6]: 14.3%
Reticulocytes [6]: 6.4%
Reticulocytes absolute [6]: 373.3 10^3/mm^3
T-Bil [6]: 0.10 mg/dL
TP [6]: 3.7 g/dL
Triglycerides [6]: 193 mg/dL
Urea N [6]: 28 mg/dL
WBC [6]: 13.70 10^3/mm^3
microscopic findings, liver (male rats, 20 mg/kg, adverse): minimal to moderate liver necrosis
LOAEL (rats): 20 mg/kg
clinical signs (rats, once daily i.v. infusion 5 and 10 mg/kg/day, temporary, resolved in recovery): non-adverse, treatment-related clinical signs
acute, treatment-related mortality (rats, single i.v. 20 mg/kg, Day 1): 5 out of 12
